Assays:
[1] = biological target: T1, melanocortin MC-4 receptor (Homo sapiens, UniProt P32245); test: MC-4 receptor binding (Filtration); conditions: cell prints its own unit nm in the Filtration (μM) column; read-out: IC50 MC-4 (Filtration)
T1 construct: purchased Receptor Biology Inc
Description: The procedures described above for the melanocortin MC-4 receptor were repeated for the melanocortin MC-3 receptor. Following the procedures described, representative compounds of the present invention were tested for binding in the MC-4 and/or MC-3 assay, as listed in Table 4.

[2] = system: human skin transplanted to the SCID mouse; test: Sebum production: Human Skin-SCID Mouse Chimera Model; type: in vivo; conditions: for % Inh Squalene (Human Sebaceous Lipids) / % Inh Triglycerides (Human Sebaceous Lipids) / % Inh W/E (Human Sebaceous Lipids): 11 Day Treatment; for % Inh Cholesterol Ester, Lipid Accumulation / % Inh Cholesterol, Lipid Accumulation / % Inh Cholesterol, Sebaceous Lipid Synthesis / % Inh Squaline, Lipid Accumulation / % Inh Squaline, Sebaceous Lipid Synthesis / % Inh Triglycerides, Lipid Accumulation / % Inh Triglycerides, Sebaceous Lipid Synthesis / % Inh Wax Esters, Lipid Accumulation / % Inh Wax Esters, Sebaceous Lipid Synthesis: 30 Day Treatment
Description: C.B-17 scid/scid mice (Taconic, Germantown, N.Y.) were used for grafting at 5–6 weeks of age. Full thickness human facial skin was shaved to ˜0.4 mm using a Forman Dermatome. The skin shavings were washed 3 times in antibiotics and antimycotics (penicillin, streptomycin, fungizone) (Life technologies) in Dulbecco's Modified Eagle Medium (DMEM, Life Technologies). Eliptical skin ˜2.0–2.5×1.0–1.5 was grafted onto the prepared graft bed and sutured using 4.0 silk. During surgical procedures the mice were anaesthetized using a mixture of Ketaset (0.16 mg/g body weight) and Rompun (8.0 μg/g body weight).
It is well accepted that the wound healing process of the transplanted skin in the SCID mouse takes one month, at which time the human skin can be used for experimental purposes. […] Maximum size of the glands was observed 3 month post transplantation. The glands retained their capability to produce human specific sebum and the glandular tissue expressed human specific markers including MC5-R. Since glands reached their maximum size at 2–3 month post transplantation the effects of inhibitors of sebum secretion was tested at this point.
Mice at 2–3 month post transplantation with human facial skin were used for the studies. The graft area was treated with the test compound at the desired concentration(s) dissolved in polyethylene glycol-ethanol (20 μl/2 cm^2). Controls were treated with vehicle alone. The test compounds were applied daily, excluding weekends. Sebum secretion was determined using Sebutape at 15 days and 30 days following treatment.
The termination of the experiment was determined by preliminary clinical evaluation of sebum production using SEBUTAPE. At this time human skin grafts were excised and representative samples were collected for histological evaluation. More particularly, 2 mm punch biopsies were prepared and used for evaluation of lipid synthesis and total lipid accumulation in the treated tissues.
The collected—2 mm punch biopsies were placed individually into 96 well plates in Krebs buffer and labeled with 10 μCi of ^14C acetate for 3 hours. Following this labeling period the samples were washed in medium and 5 biopsies pooled, weighed, and used for lipid extraction. The lipid extraction and analysis by HPTLC was the same as described for tissue culture derived cells. […]

[3] = 30 days of topical treatment with 0.05% and 0.01% solution

T1 sequence (P32245 whole entry): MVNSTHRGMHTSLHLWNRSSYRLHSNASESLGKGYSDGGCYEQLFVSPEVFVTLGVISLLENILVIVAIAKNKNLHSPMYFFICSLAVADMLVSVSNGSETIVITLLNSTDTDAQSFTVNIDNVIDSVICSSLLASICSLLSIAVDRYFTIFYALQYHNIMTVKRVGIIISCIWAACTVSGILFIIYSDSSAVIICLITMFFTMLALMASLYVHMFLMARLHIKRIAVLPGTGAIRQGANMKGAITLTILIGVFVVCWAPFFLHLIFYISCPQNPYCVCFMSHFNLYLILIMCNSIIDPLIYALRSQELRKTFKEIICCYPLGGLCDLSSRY

Molecule c1ccc(CNc2nc(-c3ccccc3)[n+](-c3ccccc3)s2)cc1 [Compound 84] has an IC50 [1] of 0.082 µM.
COc1ccccc1-c1nc(Nc2ccccc2)s[n+]1-c1ccccc1OC.[Br-] [Compound 74, 2-(2-methoxyphenyl)-3-(2-methoxyphenyl)-5-phenylamino-[1,2.4]thiadiazol-2-ium] was tested, and the “% Inh Squalene (Human Sebaceous Lipids)” value ([2]; 0.01% topical) was 0%, the “% Inh Triglycerides (Human Sebaceous Lipids)” value ([2]; 0.01% topical) was 0% and the “% Inh W/E (Human Sebaceous Lipids)” value ([2]; 0.01% topical) was 25%. For the same molecule, the “% Inh Cholesterol Ester, Lipid Accumulation” value ([2]; 0.01% topical) was 44%, the “% Inh Cholesterol, Lipid Accumulation” value ([2]; 0.01% topical) was 33% and the “% Inh Cholesterol, Sebaceous Lipid Synthesis” value ([2]; 0.01% topical) was 33%. The “% Inh Squaline, Lipid Accumulation” value ([2]; 0.01% topical) was 82%, the “% Inh Squaline, Sebaceous Lipid Synthesis” value ([2]; 0.01% topical) was 80% and the “% Inh Triglycerides, Lipid Accumulation” value ([2]; 0.01% topical) was 75%. For the same molecule, the “% Inh Triglycerides, Sebaceous Lipid Synthesis” value ([2]; 0.01% topical) was 75%, the “% Inh Wax Esters, Lipid Accumulation” value ([2]; 0.01% topical) was 86% and the “% Inh Wax Esters, Sebaceous Lipid Synthesis” value ([2]; 0.01% topical) was 86%. The “% Inh Cholesterol Ester, Lipid Accumulation” value ([2]; 0.05% topical) was 21%, the “% Inh Cholesterol, Lipid Accumulation” value ([2]; 0.05% topical) was 82% and the “% Inh Cholesterol, Sebaceous Lipid Synthesis” value ([2]; 0.05% topical) was 82%. The “% Inh Squaline, Lipid Accumulation” value ([2]; 0.05% topical) was 73%, the “% Inh Squaline, Sebaceous Lipid Synthesis” value ([2]; 0.05% topical) was 90% and the “% Inh Triglycerides, Lipid Accumulation” value ([2]; 0.05% topical) was 90%. For the same molecule, the “% Inh Triglycerides, Sebaceous Lipid Synthesis” value ([2]; 0.05% topical) was 90%, the “% Inh Wax Esters, Lipid Accumulation” value ([2]; 0.05% topical) was 93% and the “% Inh Wax Esters, Sebaceous Lipid Synthesis” value ([2]; 0.05% topical) was 93%. For the same molecule, the “% Inh Squalene (Human Sebaceous Lipids)” value ([2]; 0.1% topical) was 70%, the “% Inh Triglycerides (Human Sebaceous Lipids)” value ([2]; 0.1% topical) was 50% and the “% Inh W/E (Human Sebaceous Lipids)” value ([2]; 0.1% topical) was 80%. For the same molecule, the “% Inh Squalene (Human Sebaceous Lipids)” value ([2]; 0.5% topical) was 0%, the “% Inh Triglycerides (Human Sebaceous Lipids)” value ([2]; 0.5% topical) was 0% and the “% Inh W/E (Human Sebaceous Lipids)” value ([2]; 0.5% topical) was 10%. For the same molecule, the “de novo synthesis of sebaceous lipids” value [2, 3] was “significantly decreased”, the “total sebaceous lipid accumulation” value [2, 3] was “significantly decreased” and the “down regulation of sebaceous lipids” value ([2]; topical treatment for 15 days with 0.05% and 0.005% solutions) was “not sufficient to down regulate the lipids”. For the same molecule, the “Visual evaluation of the sebaceous gland” value ([2]; topical treatment with 0.1% solution) was “visible shrinkage of the sebaceous gland and down regulation of sebaceous lipids”.

— patent US7049331B2, “1,2,4-thiadiazole derivatives as melanocortin receptor modulators” (Ortho-McNeil Pharmaceutical, Inc., priority 2001, dated 2006)
